Results taken from patent US20160263150A1, “TUNING BIOLOGICAL SYSTEM PROPERTIES FOR OPTIMIZED TREATMENT EFFICACY” (Baylor College of Medicine, priority 2015, published 2016).

Legend:
Assay type in all cases: physicochemical
[1] = RF heating of kosmotropic materials in PBS (Example 2); settings: 342 mg/mL in PBS
Experimental: Kosmotropic material solutions in phosphate buffered saline (PBS) were prepared using concentrated PBS to maintain equal ion concentration in all solutions. Kosmotropic materials (sucrose, maltose, trehalose, glycerol, propylene glycol, ethylene glycol) and all salts were obtained from Sigma-Aldrich in high purity (>98%) and used as received.
A variable power Kanzius External RF system (13.56 MHz) Generator System (ThermMed, LLC, Erie, Pa.) was used to heat aqueous solutions and tissue samples. A high-voltage RF field is generated in the 8 cm air gap between the transmitting and receiving heads of the RF-field generator. For aqueous experiments, samples were placed in a 1.3 mL quartz cuvette on a nonconducting Teflon holder mounted on an adjustable rotary stage at ambient temperature and open to air. […] Sample temperatures were recorded using an infrared camera (FLIR SC 6000, FLIR Systems, Inc., Boston, Mass.) approximately every 0.17 seconds. […] Heating rates were calculated by fitting a linear regression to the temperature versus time plot of each sample for the duration of RF exposure or only for the first five seconds of RF exposure. The latter methodology allows for the assumption that the dielectric properties remain approximately constant in the time frame analyzed, as discussed herein. […]

[2] = RF-induced heating of m-/s-SWNT suspensions in NaCl solutions; settings: with 2% w/v Pluronic F108
Experimental: Once characterized, these m-/s-SWNT samples were then exposed to a high-intensity (˜90 kV/m) 13.56 MHz RF electric field. […] Approximately 1.3 mL of each sample was placed in a cylindrical quartz cuvette (˜1 cm height by ˜1 cm diameter) and exposed to the RF field for 120 seconds or until the temperature reached 70° C. to prevent electrical arcing. Thermal imaging data was captured using an FLIR SC 600 infrared camera. Videos were also recorded simultaneously using a Nikon SLR camera. Once the samples had been exposed, the SWNTs were removed from solution using a 100 KDa filter to collect the supernatant, which was then re-exposed to the RF field. The differential heating rates determined heat production from the SWNTs themselves and not the Pluronic F108/NaCl background.
Using the highest SWNT concentration of 100 mg/L, Applicants then sought to investigate SWNT heating rates versus host medium conductivity, which was modulated using NaCl solutions. Aqueous NaCl solutions (all with 2% w/v Pluronic F108) across the molarity range 10^4 to 10^3 mM were combined with m-/s-SWNTs at a concentration of 100 mg/L. These were then exposed to the RF field and filtered to remove the supernatant, which was then re-exposed.

[3] = RF (13.56 MHz) heating rate of kosmotropic materials dissolved in PBS, 100 W; settings: 500 mg/m in PBS
Experimental: Sample temperature was measured using an infrared camera. The heating rates were calculated by a least-squares linear regression of the resultant temperature-time plot (FIG. 2B). Samples were heated from 23° C. to either 27° C. or for a duration of 60 seconds, whichever occurred first. Over this selected small temperature range, the variation of the temperature-dependence of dielectric properties was negligible.
The complex relative permittivity (∈′r and e″r) of all samples was measured over the frequency range of 10 MHz to 3 GHz (FIGS. 4A-B). From these measurements, the conductivity was obtained using the relationship σ=ω∈D∈″r. […]
Each of the materials listed in FIG. 5A were dissolved at 100, 250, and 500 mg/mL in phosphate buffered saline (PBS), a biologically iso-osmolar solution with similar conductivity (1.15 S/m) to blood and body tissues. […] RF heating rates and conductivity were measured according to the procedure described in Examples 1.1 and 1.2. […]
A variable power RF (13.56 MHz) Generator System (ThermMed, LLC, Erie, Pa.) was used to heat aqueous solutions. […] Sample temperatures were recorded using an infrared camera (FLIR SC 6000, FLIR Systems, Inc., Boston, Mass.) approximately every 0.17 s. […] Heating rates were calculated by fitting a linear regression to the temperature versus time plot of each sample for the duration of RF exposure.

[4] = RF heating rate and conductivity of bovine blood mixed with additives; settings: for effect of addition on blood conductivity and heating rate: 1-20% by weight in bovine blood; for additive content from which a significant increase in blood heating rate (p<0.005) was observed: by weight in bovine blood with 2-3% EDTA
Experimental: In a similar study, various additives were added to bovine blood containing 2-3% ethylenediamine tetraacetic acid (EDTA) to prevent coagulation. The additives tested were propylene glycol, glycerol, pure water and normal saline at concentrations of 1-20% by weight.
A variable power RF (13.56 MHz) Generator System (ThermMed, LLC, Erie, Pa.) was used to heat aqueous solutions. A high-voltage RF field is generated in the 8 cm air gap between the transmitting and receiving heads of the RF field generator. For aqueous experiments, samples were placed in a 1.3 mL quartz cuvette on a non-conducting Teflon holder mounted on an adjustable rotary stage at ambient temperature and open to air. The cuvette was placed 8 mm from the transmitting head of the RF field generator and exposed to the high-voltage RF field at 100 or 900 W generator power. Sample temperatures were recorded using an infrared camera (FLIR SC 6000, FLIR Systems, Inc., Boston, Mass.) approximately every 0.17 s. At both 100 W and 900 W, samples were heated from ambient temperature (i.e., ˜23° C.) to 27° C. or for a duration of 60 seconds, whichever occurred first. Heating rates were calculated by fitting a linear regression to the temperature versus time plot of each sample for the duration of RF exposure.
Previous experiments involved conductivity modulation of PBS, a biologically relevant aqueous solution commonly used in laboratory settings. […] Blood samples contained 2-3% ethylenediamine tetraacetic acid (EDTA) to prevent coagulation. A number of additives, including water, normal saline, propylene glycol and glycerol were mixed with blood at increasing weight percent content (1-20%).

[5] = RF heating of neat ethanol and oils, 900 W
Experimental: A variable power Kanzius External RF system (13.56 MHz) Generator System (ThermMed, LLC, Erie, Pa.) was used to heat aqueous solutions and tissue samples. A high-voltage RF field is generated in the 8 cm air gap between the transmitting and receiving heads of the RF-field generator. For aqueous experiments, samples were placed in a 1.3 mL quartz cuvette on a nonconducting Teflon holder mounted on an adjustable rotary stage at ambient temperature and open to air. The cuvette was placed 8 mm from the transmitting head of the RF-field generator and exposed to the high-voltage RF field at 900 W generator power. Sample temperatures were recorded using an infrared camera (FLIR SC 6000, FLIR Systems, Inc., Boston, Mass.) approximately every 0.17 seconds. Samples were heated from ambient temperature (i.e., ˜23° C. to ˜70° C. or for 120 seconds), whichever occurred first. Heating rates were calculated by fitting a linear regression to the temperature versus time plot of each sample for the duration of RF exposure or only for the first five seconds of RF exposure. The latter methodology allows for the assumption that the dielectric properties remain approximately constant in the time frame analyzed, as discussed herein.

| Compound | PBS heating rate with kosmotropic material [1] [° C./s] | additive content from which a significant increase in blood heating rate (p<0.005) was observed [4] [%] | effect of addition on blood conductivity and heating rate [4] | also measured |
| --- | --- | --- | --- | --- |
| OC[C@H]1O[C@H](O[C@H]2[C@H](O)[C@@H](O)C(O)O[C@@H]2CO)[C@H](O)[C@@H](O)[C@@H]1O (mixture of isomers) [Maltose, maltose] | 0.32±0.01 | – | – | – |
| [Cl-].[Na+] [NaCl] | – | – | – | NaCl concentration at maximum heating [2]: 5 mM |
| CCO [ethanol] | – | – | – | RF heating rate of neat material [5]: 0.09 ° C./s |
| OC[C@H]1O[C@H](O[C@H]2O[C@H](CO)[C@@H](O)[C@H](O)[C@H]2O)[C@H](O)[C@@H](O)[C@@H]1O [trehalose] | 0.33±0.01 | – | – | – |

Further lines, with some results ahead:

| PBS heating rate with kosmotropic material [1] [° C./s] | additive content from which a significant increase in blood heating rate (p<0.005) was observed [4] [%] | Compound | effect of addition on blood conductivity and heating rate [4] | also measured |
| --- | --- | --- | --- | --- |
| – | 5 | CC(O)CO (stereo not drawn) [Propylene glycol, propylene glycol] | decrease in blood conductivity and increase in heating rate | increase of the heating rate of PBS [3]: 490% |
| – | 10 | OCC(O)CO [glycerol] | decrease in blood conductivity and increase in heating rate | – |
